Source: publication PMC9612231, “Antileishmanial Anthracene Endoperoxides: Efficacy In Vitro, Mechanisms and Structure-Activity Relationships” (Molecules, 2022)

tested on: Leishmania tarentolae promastigotes (LtP); assay: Resazurin viability assay for LtP; type: cell-based; conditions: Leishmania tarentolae, 48 h, read-out: LtP IC50
Description: (§1) The influence of AcEP and their analogs (Ac) on the viability of cells was tested in Leishmania tarentolae promastigotes (LtP) and J774 macrophages (Table 2). Based on the changes of viability of the respective cell lines at different compound concentrations, IC50 values were calculated. In Table 2, the IC50 values in both cell lines were compared for the individual compounds. From the ratio of IC50 values in J774 macrophages to IC50 values in LtP, an in vitro selectivity was calculated.
LtP (strain P10 from Jena Bioscience, Jena, Germany) were cultivated according to manufacturer instructions up to passage 50 in brain heart infusion medium (37 g/L, pH 7.4) and supplemented with 5 mg/L hemin and 25,000 IU/L penicillin and 25 mg/L streptomycin in 50 mL TubeSpin bioreactors (TPP, Trasadingen. Switzerland). LtP were grown at 27 °C in an incubator (Ehret, Emmendingen, Germany) and agitated at a frequency of 0.05 s^−1. […] For experiments, LtP were used one day after passage. The cell number was calculated by measuring the optical density (OD) of the culture at 600 nm with a U-1100 photometer (Hitachi Ltd., Tokyo, Japan) and applying the formula × 10^6 cells/mL = OD600nm × 0.969 × 124 × dilution factor [53].
Assay medium of YEM (20.7 g/L yeast extract powder, 1.2 g/L K2HPO4, 0.2 g/L KH2PO4, 2.9 g/L glucose, pH 7.4) and PBS (1:1, v/v), 25,000 U/L penicillin, 25 mg/L streptomycin, and 7.7 µM hemin was prepared. Aliquots of 200 µL of this medium and 2 × 10^6 LtP/mL (where required) were distributed in non-treated cell culture 96-well plates. Compounds (dissolved in DMSO) were added with starting concentrations of 25 µM (Pen) or 200 µM (AcEP/Ac), and then, serial dilutions were carried out resulting in a set of concentrations (25, 5, 1, 0.2, 0.04, and 0.008 µM) or (200, 40, 8, 1.6, 0.32, and 0.064 µM). For each compound concentration, at least triplicates on each plate were performed. After incubation of the plates at 27 °C for 48 h, 50 µL of resazurin solution (final concentration in wells 20 µM) was added to each well and after 4 h of incubation, the fluorescence was measured at 560 nm excitation and 590 nm emission using a plate reader (Perkin Elmer EnSpire, Rodgau, Germany) (adapted from). Combination assays for viability in the presence of PIH and NAC were performed the same way. […] All tests were repeated at least on four different weeks of cultivation.
(§2) Calculations were carried out using Microsoft Excel 2016 (Microsoft). The graphs were created using Origin 6.1 (OriginLab Corporation, Northampton, MA, USA). For all groups of experimental data, mean and standard deviation (SD) were calculated. Statistically significant differences between groups of sample data were identified by unpaired two-tailed Student’s t-test. Differences on the level of p < 0.05 were considered significant. The number of replicates is indicated at the respective figures/tables. The half-maximal inhibitory concentrations (IC50) were determined from non-linear concentration-response curves using a four-parameter logistic model and expressed as the mean ± SD.

SMILES	IC50
CC(C)(C)c1ccc2c(-c3cccnc3)c3ccccc3c(-c3cccnc3)c2c1 [mPyBuAc]	0.54 ± 0.09 µM

same assay, conditions: Leishmania tarentolae; resazurin viability, endpoint 48 h, 2 × 10^6 LtP/mL, mean ± SD of 4–8 experiments; read-out: LtP IC50

SMILES	IC50
C[n+]1ccc(C23OOC(c4cc[n+](C)cc4)(c4ccccc42)c2ccccc23)cc1 [Compound 1062MeAcEP]	62 ± 34.2 µM
c1ccc(C23OOC(c4ccccc4)(c4ccccc42)c2ccccc23)cc1 [DPAcEP]	9.67 ± 2.15 µM
CC(C)(C)c1ccc2c(c1)C1(c3cccnc3)OOC2(c2cccnc2)c2ccccc21 (centres unmarked) [mPyBuAcEP]	0.7 ± 0.31 µM
COc1ccccc1C12OOC(c3ccccc3OC)(c3ccccc31)c1ccccc12 [oOMeAcEP]	40.7 ± 12.3 µM
c1ccc(C23OOC(c4ccccn4)(c4ccccc42)c2ccccc23)nc1 [oPyAcEP]	1.84 ± 0.13 µM

same assay, conditions: ratio of IC50 in J774 macrophages to IC50 in LtP

SMILES	Selectivity IC50,J774/IC50,LtP
C[n+]1ccc(C23OOC(c4cc[n+](C)cc4)(c4ccccc42)c2ccccc23)cc1 [Compound 1062MeAcEP]	>3.2
c1ccc(C23OOC(c4ccccc4)(c4ccccc42)c2ccccc23)cc1 [DPAcEP]	20
CC(C)(C)c1ccc2c(c1)C1(c3cccnc3)OOC2(c2cccnc2)c2ccccc21 (centres unmarked) [mPyBuAcEP]	35
CC(C)(C)c1ccc2c(-c3cccnc3)c3ccccc3c(-c3cccnc3)c2c1 [mPyBuAc]	139
COc1ccccc1C12OOC(c3ccccc3OC)(c3ccccc31)c1ccccc12 [oOMeAcEP]	>4.9
c1ccc(C23OOC(c4ccccn4)(c4ccccc42)c2ccccc23)nc1 [oPyAcEP]	1.2

same assay, conditions: ratio of IC50 of non-EP in LtP versus IC50 of respective EP

SMILES	IC50,non-EP/IC50,EP
c1ccc(C23OOC(c4ccccc4)(c4ccccc42)c2ccccc23)cc1 [DPAcEP]	20.3
CC(C)(C)c1ccc2c(c1)C1(c3cccnc3)OOC2(c2cccnc2)c2ccccc21 (centres unmarked) [mPyBuAcEP]	0.77
COc1ccccc1C12OOC(c3ccccc3OC)(c3ccccc31)c1ccccc12 [oOMeAcEP]	1.79
c1ccc(C23OOC(c4ccccn4)(c4ccccc42)c2ccccc23)nc1 [oPyAcEP]	18.7

same assay, conditions: viability assay

SMILES	Activity against LtP, in words
c1ccc(C23OOC(c4ccccc4)(c4ccccc42)c2ccccc23)cc1 [DPAcEP]	rather active

tested on: J774 macrophages; assay: Resazurin viability assay for J774 macrophages; type: cell-based, murine; conditions: Mus musculus, J774, 48 h, read-out: J774 IC50
Description: as §1
The murine macrophage cell line J774A.1 (ATCC, TIB-67™, Wesel, Germany) was cultivated up to passage 30 in DMEM (high glucose, 3.7 g/L NaHCO3, pH 7.4) with 25,000 IU/L penicillin, 25 mg/L streptomycin, and 10% FCS (heat-inactivated) in 50 mL TubeSpin bioreactors. J774 cells were incubated at 37 °C and 5% CO2 on a roller culture apparatus (5 rpm) in a Heraeus Cytoperm 8080 incubator (Thermo Electron Corp., Vienna, Austria). To determine the cell count, the cell suspension was re-suspended and diluted 1:2 with phosphate-buffered saline (PBS): 137 mM NaCl, 1.4 mM KH2PO4, 4.3 mM Na2HPO4, and 2.7 mM KCl, pH 7.4. After fixation of the cells by mixing the cell suspension 1:1 with a formaldehyde solution (2%, v/v), aliquots of the resulting suspension were transferred into a standard Neubauer chamber (VWR, Austria) and counted manually using a light microscope (Motic BA310, Vienna, Austria) at a magnification of 40 times. J774 cells were passaged twice a week in a ratio of 1:10.
DMEM containing 25,000 U/L penicillin, 25 mg/L streptomycin, 10% FCS, and 1 × 10^5 J774/mL was prepared. This mixture (200 µL) was distributed in cell culture-treated 96-well plates, except the control wells which contained only DMEM. The cells were incubated for 24 h at 37 °C and 5% CO2 to allow attachment. Afterwards the medium and non-adherent cells were removed by washing with PBS, and then, 200 µL DMEM was added to attached cells. Compounds dissolved in DMSO were added in starting concentrations of 25 µM (Pen) or 200 µM (AcEP/Ac), and then, serial dilutions were carried out resulting in the same concentration steps as listed for LtP. For each compound concentration triplicates on each plate were performed. […], 50 µL of resazurin solution (final concentration 20 µM) was added, and after 4 h of incubation, the fluorescence was measured at 560 nm excitation and 590 nm emission using a plate reader (Perkin Elmer EnSpire, Rodgau, Germany). All tests were repeated at least on four different weeks of cultivation.
as §2

SMILES	IC50
CC(C)(C)c1ccc2c(-c3cccnc3)c3ccccc3c(-c3cccnc3)c2c1 [mPyBuAc]	74.2 ± 45.9 µM

same assay, conditions: Mus musculus, J774, 48 h, resazurin viability, endpoint 48 h, 10^5 J774 cells/mL, mean ± SD of 4–8 experiments; read-out: J774 IC50

SMILES	IC50
C[n+]1ccc(C23OOC(c4cc[n+](C)cc4)(c4ccccc42)c2ccccc23)cc1 [Compound 1062MeAcEP]	> 200 µM
c1ccc(C23OOC(c4ccccc4)(c4ccccc42)c2ccccc23)cc1 [DPAcEP]	197 ± 35 µM
CC(C)(C)c1ccc2c(c1)C1(c3cccnc3)OOC2(c2cccnc2)c2ccccc21 (centres unmarked) [mPyBuAcEP]	24.6 ± 7.3 µM
COc1ccccc1C12OOC(c3ccccc3OC)(c3ccccc31)c1ccccc12 [oOMeAcEP]	> 200 µM
c1ccc(C23OOC(c4ccccn4)(c4ccccc42)c2ccccc23)nc1 [oPyAcEP]	2.24 ± 0.08 µM

tested on: not listed separately; assay: UV detection of cycloreversion (thermal decomposition) of AcEP; type: physicochemical; conditions: 40 µM AcEP in EtOH at 70 °C over up to 23 h, UV spectra
Description: To determine EP decomposition, we recorded at first the UV spectra of the parent Ac compound and then observed the spectral changes of the corresponding EP during incubation in EtOH (Figure 7). […] Spectral changes in these compounds rather indicate other decomposition pathways.
A sample of the corresponding Ac in 1.5 mL EtOH (final concentrations 2, 8, or 10 µM) was transferred into a quartz cuvette and measured by an UV–VIS spectrometer (U3300, Hitachi, Tokyo, Japan) at 70 °C. Afterwards, an aliquot of the corresponding AcEP dissolved in EtOH (final concentration 40 µM) was pipetted into a cuvette, and its UV spectra were measured at 70 °C in a time interval of 1 h over a period of 23 h. After measurements, the re-appearance of the Ac absorption pattern was verified.

SMILES	Cycloreversion to the parent Ac compound (thermal decomposition)
c1ccc(C23OOC(c4ccccc4)(c4ccccc42)c2ccccc23)cc1 [DPAcEP]	clear reformation of the parent Ac compound over time
CC(C)(C)c1ccc2c(c1)C1(c3cccnc3)OOC2(c2cccnc2)c2ccccc21 (centres unmarked) [mPyBuAcEP]	clear reformation of the parent Ac compound over time
c1ccc(C23OOC(c4ccccn4)(c4ccccc42)c2ccccc23)nc1 [oPyAcEP]	did not undergo conversion to the parent Ac compound
